Results taken from patent US20090124680A1, “USE OF PRODRUG COMPOSITION CONTAINING NAPHTHOQUINONE-BASED COMPOUND FOR MANUFACTURE OF MEDICAMENT FOR TREATMENT OR PREVENTION OF DISEASES INVOLVING METABOLIC SYNDROME” (Mazence Inc., priority 2007, published 2009).

What was measured:
[1] = Weight loss effects in obese mice: body weight, body weight gain and food intake; assay type: in vivo, C57BL/6 male mice; settings: high-fat diet mice; oral, 28 days; Example 14 195 mg/kg, Example 5 65 mg/kg; compared to control group; FIGS. 1 and 2
Experimental: (§1) 4-week-old C57BL/6 male mice were purchased from Orient BIO Inc. (Korea). Animals were raised for 10 weeks in a breeding room maintained at a temperature of 23° C., 55% humidity, illumination of 300 to 500 lux, a 12-h light/dark (L/D) cycle, and ventilation of 10 to 18 times/hr. Experiments included animals weighing […] or higher. Animals were fed ad libitum a high-fat diet (45 kcal % from fat, D12451, Research Diet) and tap water as drinking water.
(§2) Each group of animals was administered 195 mg/kg of the prodrug compound of Example 14 (hereinafter often simply referred to as “A31”) and 65 mg/kg of the prodrug compound of Example 5 (hereinafter often simply referred to as “A32”) for 4 weeks, as set forth in Table 1 below. Observations were made on changes in body weight and food intake, with respect to a time course of administration. After administration was complete, biochemical indices were assayed including changes in adipose tissue distribution, hepatic functions, and lipid and enzyme levels.

[2] = Biochemical indices in the blood of C57BL/6 mice after administration; assay type: in vivo; settings: oral, 28 days; Example 14 195 mg/kg, Example 5 65 mg/kg; compared to control group; FIG. 4
Experimental: as §1, §2
FIGS. 4 and 5 show changes of biochemical indices in the blood of C57BL/6 mice to which the prodrug composition of Example 5 and the prodrug composition of Example 14 were administered.

| Molecule | body weight (g) [1] | body weight gain (%) [1] | blood levels of GOT/GTP enzymes [2] |
| --- | --- | --- | --- |
| CC(=O)Oc1c2c(c3ccccc3c1OC(C)=O)OC(C)(C)CC2 [Example 5, 5,6-diacetoxy-2,2-dimethyl-3,4-dihydro-2H-benzo[h]chromene] | excellent weight-loss effects | negative (−) value | decreased |
| 10,11-diacetoxy-2,6,6-trimethyl-1,2,6,7,8,9-hexahydro-phenanthro[1,2b]furan [Example 14] | significant reductions | significant reductions | decreased |
